In data set [1] the test system is osteoblastic (MC3T3-E1) and chondrocytic (N1511) cells. As to conditions: cited from earlier work.
Data set [2] is described as follows: US release of VAN from porous PLA-sealed PEEK block. Type of data set: physicochemical. As to conditions: 10 mg VAN loaded; 10 min US insonation (5 MHz, 4 MPa). How it is done:
During the first 15 min of immersion, 11 mg and 3 mg of drug were released (due to surface amounts in PLA) from the groups. […] […] (4) Three PLA coatings for US rupture using highly porous PEEK.

Another data set has as its system bacteria. The conditions noted are these: US plus VAN; cited from earlier work.
Data set [3] relates to S. aureus. In words: Bacterial colonization of inoculated spinal sites in a cadaverous rabbit. As to conditions: sites inoculated with 10^4 CFU S. aureus; insonation 20 min, 5 MHz, 3 MPa pk-pk. How it is done: (§1) The first set of experiments uses rabbit carcasses to establish US parameters that reproducibly release the desired amounts of ABX within a mock spinal fusion site. Preliminary tests on such animals in which VAN-loaded (4 mg), PLA-sealed sheaths were placed in 4 spinal levels of a cadaverous rabbit. Site 1 and Site 3 were inoculated with 10^4 CFU S. aureus in 100 μL PBS, and Site 2 and 4 were encased in plastic to collect released VAN. Without any optimization of US parameters, ˜50% of the VAN was released by insonation (20 min, 5 MHz, 3 MPapk-pk) and caused ˜10× less bacterial colonization.

The next data set relates to bacterial lawn. In words: Passive elution of VAN from allograft bone and bacterial killing (FIG. 6). The conditions noted are these: initial loading 10 mg/ml VAN. How it is done:
Antibacterial activity of bone allografts: comparison of a new vancomycin-tethered allograft with allograft loaded with adsorbed vancomycin. This is an example of the elution that can be achieved without enhancement by ultrasound.
(initial loading: 10 mg/ml VAN, FIG. 6). However, a preferred sheath is sealed so that it retains antibiotics without leakage for up to 7 days (to allow for triggered release at any time prior to patient discharge) and then releases >99% of the antibiotics within 24 hrs. of US insonation. Accordingly, release can be determined based on the specific needs of the patient. Therapeutic materials loaded into the sheath may be liquids, solids, gels, or combinations thereof. Release profile of these different materials may require different structures to allow for the appropriate release.

The nature of data set [4]: VAN release from PLA-sealed sheaths in spinal levels of a cadaverous rabbit. As to conditions: 4 mg VAN-loaded PLA-sealed sheaths; 20 min, 5 MHz, 3 MPa pk-pk; US parameters not optimized. How it is done:
as §1

The subject of data set [5] is S. aureus. The conditions noted are these: cited from earlier work.
The nature of data set [6]: US-mediated methylene blue release from PLA-sealed multiport (1 mm) PEEK sheath. Type of data set: physicochemical. How it is done:
Multiple 1 mm holes (left) and one 3 mm hole (right) sheaths were submerged in water and release of methylene blue (MeB) or MeB+VAN was measured spectrophotometrically.
During the first 15 min of immersion, 11 mg and 3 mg of drug were released (due to surface amounts in PLA) from the groups. […] With a 15 min insonation (5 MHz, 3 MPa), 15 mg was released within one hour and the remaining 24 mg of drug was released by 72 hrs^39. (4) Three PLA coatings for US rupture using highly porous PEEK.

Read-outs that look alike come from different tables or passages of the source.

As for `NC[C@H]1O[C@H](O[C@H]2[C@H](O)[C@@H](O[C@H]3O[C@H](CO)[C@@H](O)[C@H](N)[C@H]3O)[C@H](N)C[C@@H]2N)[C@H](N)C[C@@H]1O` [TOB, tobramycin], the “concentration at which toxicity / cell death initiates” value in data set [1] was about 500 µg/mL.
Consider `CN[C@H](CC(C)C)C(=O)N[C@H]1C(=O)N[C@@H](CC(N)=O)C(=O)N[C@H]2C(=O)N[C@H]3C(=O)N[C@H](C(=O)N[C@H](C(=O)O)c4cc(O)cc(O)c4-c4cc3ccc4O)[C@H](O)c3ccc(c(Cl)c3)Oc3cc2cc(c3O[C@@H]2O[C@H](CO)[C@@H](O)[C@H](O)[C@H]2O[C@H]2C[C@](C)(N)[C@H](O)[C@H](C)O2)Oc2ccc(cc2Cl)[C@H]1O` [VAN, vancomycin], for which the “released VAN after US insonation” value in data set [2] came to 7.5 mg. Further, in data set [1] (MC3T3-E1 and N1511 cells), the “concentration at which toxicity / cell death initiates” value was “above 1 mg/ml” and the toxicity in words entry was “low toxicity”. The “further decrease of bacterial numbers by US in the presence of VAN” value with bacteria is recorded as 50-90%. This compound also returned a less bacterial colonization in the data set on S. aureus [3] of about 10 ×. Moreover, the bacterial killing entry in the data set with bacterial lawn (especially within the first 48 hr.) was “significant bacterial killing”. Besides, the “elution from allograft bone” value in the data set with bacterial lawn (no ultrasound) is “rapid passive elution”. In addition, the “VAN released by insonation” value in data set [4] is on record as about 50%. Also, the “bacterial levels on metal surface versus 0 and 4 ug/ml VAN” value with S. aureus [5] (100 ug/ml of VAN (FIG. 2C)) is on record as “massive reduction in bacterial levels”. Further, in the data set on S. aureus [5] (1 hr., 100× MIC), the “reduction of bacterial colonization” value is on record as “many-fold”.
For the compound `CN(C)c1ccc2nc3ccc(=[N+](C)C)cc-3sc2c1` [MeB, methylene blue], the “increase in MeB release, US group” value in data set [6] (US insonated, over 8 days) turned out to be 757%. Further, in data set [6] (no US, at 2 days), the “increase in MeB release, non-insonated controls” value is 26%. Moreover, in data set [6] (no US, out to 6 days), the “additional MeB release, non-insonated controls” value is listed as “no additional release”.
With `O=C(O)c1cn(C2CC2)c2cc(N3CCNCC3)c(F)cc2c1=O` [CIP, ciprofloxacin], in data set [1], the “concentration at which toxicity / cell death initiates” value is 150 to 200 µg/mL.
